The values below come from US4845195A, “Inhibitor of ribonucleotide reductase” (Merck & Co., Inc., priority 1987, dated 1989).

Ends that are not written are not given here. Peptide text beside a SMILES is read from it. * marks the point of attachment. Desaminotyrosyl = O=C(CCc1ccc(O)cc1)*

Experiment [1] addresses T1, Herpes Simplex Virus Ribonucleotide Reductase (Human herpesvirus 2, UniProt P89462).
T1 construct: HSV RR was purified from Baby Hamster Kidney cells that were cultured with HSV2 Strain 186; made in house; host or cells: Baby Hamster Kidney cells infected with HSV2 Strain 186
Description: Assay of Inhibition of HSV RR Activity (reduction of tritiated cytidine-diphosphate). Format: biochemical, HSV2 Strain 186. The settings on record: 30 minutes at 37°C, dithiothreitol and MgCl2, enzyme not preincubated with inhibitor; read-out: IC50 (μM concentration of peptide producing 50% inhibition of enzyme activity). Here is the method: After infection, cells were harvested and lysed. Crude HSV RR was prepared as described by Huszar et al., J. Virol.
HSV RR activity was determined as the ability of the enzyme to catalyze the reduction of tritiated cytidine-diphosphate to deoxyribo-cytidinediphosphate in 30 minutes at 37°C. in the presence of dithiothreitol and MgCl2. Activity of oligopeptide inhibitors was determined by adding them to the reaction mix at the beginning of the incubation. Enzyme was not preincubated with inhibitor.
These were analyzed for amino acid composition and in some cases sequenced. Dry peptides were resuspended in 100 mM HEPES (pH 8.0) at about 2mM, relyophilized, and stored in aliquots at -80° C. Immediately prior to use they were rehydrated with distilled H2 O and centrifuged to remove any undissolved peptide.

The target of experiment [2] is ribonucleotide reductase enzyme of herpes simplex virus (Human herpesvirus 1, UniProt P08543). The settings on record: Nature 321:439-441 and 441-443 (1986); cited from earlier work.
ribonucleotide reductase enzyme of herpes simplex virus, sequence (P08543 whole entry): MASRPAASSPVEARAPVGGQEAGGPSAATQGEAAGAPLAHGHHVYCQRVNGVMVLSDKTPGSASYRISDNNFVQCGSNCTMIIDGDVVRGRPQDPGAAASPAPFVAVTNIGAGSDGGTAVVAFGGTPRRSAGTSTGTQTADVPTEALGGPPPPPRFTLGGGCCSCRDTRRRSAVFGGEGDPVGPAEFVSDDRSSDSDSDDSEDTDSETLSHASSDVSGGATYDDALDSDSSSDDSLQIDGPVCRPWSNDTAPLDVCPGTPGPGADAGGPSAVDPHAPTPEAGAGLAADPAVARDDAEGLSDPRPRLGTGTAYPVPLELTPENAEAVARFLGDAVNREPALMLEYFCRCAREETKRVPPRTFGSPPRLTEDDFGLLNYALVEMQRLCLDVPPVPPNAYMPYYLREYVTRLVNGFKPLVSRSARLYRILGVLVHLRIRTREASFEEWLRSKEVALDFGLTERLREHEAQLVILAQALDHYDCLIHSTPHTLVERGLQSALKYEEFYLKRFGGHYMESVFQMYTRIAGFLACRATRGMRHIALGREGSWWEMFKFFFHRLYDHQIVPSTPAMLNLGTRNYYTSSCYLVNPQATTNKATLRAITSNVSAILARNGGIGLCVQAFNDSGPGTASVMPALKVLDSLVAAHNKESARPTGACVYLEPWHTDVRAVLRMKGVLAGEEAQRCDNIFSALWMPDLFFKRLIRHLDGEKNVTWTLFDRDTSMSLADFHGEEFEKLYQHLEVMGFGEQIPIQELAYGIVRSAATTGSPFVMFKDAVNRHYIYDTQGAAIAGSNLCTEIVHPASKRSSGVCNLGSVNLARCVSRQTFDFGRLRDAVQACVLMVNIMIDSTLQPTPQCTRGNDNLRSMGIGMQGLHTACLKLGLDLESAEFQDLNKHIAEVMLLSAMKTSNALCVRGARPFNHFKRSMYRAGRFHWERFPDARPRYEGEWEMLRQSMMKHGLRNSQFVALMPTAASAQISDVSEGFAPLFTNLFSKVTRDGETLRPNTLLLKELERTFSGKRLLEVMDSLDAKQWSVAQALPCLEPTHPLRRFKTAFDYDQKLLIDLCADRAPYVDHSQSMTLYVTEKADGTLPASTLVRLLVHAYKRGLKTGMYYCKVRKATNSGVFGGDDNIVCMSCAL

T1 sequence (P89462 whole entry): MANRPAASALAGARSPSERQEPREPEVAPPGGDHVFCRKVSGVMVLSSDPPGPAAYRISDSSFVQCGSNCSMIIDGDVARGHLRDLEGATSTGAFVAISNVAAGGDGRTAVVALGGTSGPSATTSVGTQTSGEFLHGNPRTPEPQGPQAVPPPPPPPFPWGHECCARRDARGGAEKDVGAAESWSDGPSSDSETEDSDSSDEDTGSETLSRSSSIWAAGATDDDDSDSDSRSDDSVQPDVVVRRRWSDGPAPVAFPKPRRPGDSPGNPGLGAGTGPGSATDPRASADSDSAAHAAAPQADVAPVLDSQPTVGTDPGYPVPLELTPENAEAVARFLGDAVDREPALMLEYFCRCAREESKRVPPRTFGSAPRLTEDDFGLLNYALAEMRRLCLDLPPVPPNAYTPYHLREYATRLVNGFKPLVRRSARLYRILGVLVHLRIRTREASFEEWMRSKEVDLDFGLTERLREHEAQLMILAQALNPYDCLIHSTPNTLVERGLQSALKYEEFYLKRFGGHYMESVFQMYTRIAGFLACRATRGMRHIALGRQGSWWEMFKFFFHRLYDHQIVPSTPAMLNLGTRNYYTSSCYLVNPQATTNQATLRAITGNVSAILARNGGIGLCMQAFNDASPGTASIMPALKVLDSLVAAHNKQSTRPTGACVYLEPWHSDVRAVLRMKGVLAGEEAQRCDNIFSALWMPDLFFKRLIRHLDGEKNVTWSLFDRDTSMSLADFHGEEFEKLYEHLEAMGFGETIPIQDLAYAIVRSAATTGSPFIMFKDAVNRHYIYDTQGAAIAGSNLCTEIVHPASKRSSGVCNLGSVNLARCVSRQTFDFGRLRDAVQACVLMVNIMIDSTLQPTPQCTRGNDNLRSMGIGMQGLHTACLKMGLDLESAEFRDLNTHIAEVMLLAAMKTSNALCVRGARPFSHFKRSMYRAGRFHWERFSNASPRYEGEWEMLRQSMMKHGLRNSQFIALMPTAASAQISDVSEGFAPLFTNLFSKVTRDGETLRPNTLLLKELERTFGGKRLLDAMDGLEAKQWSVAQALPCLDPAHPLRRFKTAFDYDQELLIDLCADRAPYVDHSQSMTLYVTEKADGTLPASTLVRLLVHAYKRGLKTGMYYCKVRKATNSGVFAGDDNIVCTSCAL

With AGAVVNDL [AGAVVNDL], the IC50 in experiment [1] was 80 µM. Take `CC(C)C[C@H](NC(=O)[C@H](CC(=O)O)NC(=O)[C@H](CC(N)=O)NC(=O)[C@@H](NC(=O)[C@@H](NC(=O)[C@H](C)NC(=O)CNC(=O)[C@H](C)NC(=O)[C@@H](N)Cc1ccc(O)cc1)C(C)C)C(C)C)C(N)=O` [YAGAVVNDL--NH2, YAGAVVNDL-NH2]: the IC50 in experiment [1] was determined as 75 µM. On to `CC(C)C[C@H](NC(=O)[C@H](CC(=O)O)NC(=O)[C@H](CC(N)=O)NC(=O)[C@@H](NC(=O)[C@@H](NC(=O)[C@H](C)NC(=O)CNC(=O)[C@H](C)NC(=O)CCc1ccc(O)cc1)C(C)C)C(C)C)C(=O)O` [desNH2--YAGAVVNDL, desNH2-YAGAVVNDL] (Desaminotyrosyl-AGAVVNDL-OH), for which the IC50 in experiment [1] came to 20 µM. Turning to `CC(=O)N[C@@H](Cc1ccc(O)cc1)C(=O)N[C@@H](C)C(=O)NCC(=O)N[C@@H](C)C(=O)N[C@H](C(=O)N[C@H](C(=O)N[C@@H](CC(N)=O)C(=O)N[C@@H](CC(=O)O)C(=O)N[C@@H](CC(C)C)C(=O)O)C(C)C)C(C)C` [AcYAGAVVNDL], the IC50 in experiment [1] came out at 5 µM. In the case of Tyr GVly Ala Val Val Asn Asp Leu, the “inhibition of the activity of the enzyme in vitro” value in experiment [2] is on record as “inhibited”. For STSYAGAVVNDL [STSYAGAVVNDL], in experiment [1], the IC50 was determined as 17 µM. On to SYAGAVVNDL [SYAGAVVNDL], for which the IC50 in experiment [1] was determined as 17 µM. On the same count and under the same terms, under `CC(C)C[C@H](NC(=O)[C@H](CC(=O)O)NC(=O)[C@H](CC(N)=O)NC(=O)[C@@H](NC(=O)[C@@H](N)C(C)C)C(C)C)C(=O)O` [VVNDL, Val Val Asn Asp Leu] stands 250 µM; under FPLSLMSTDKHTNFFECRSTSYAGAVVNDL, 8 µM; under TSYAGAVVNDL [TSYAGAVVNDL], 17 µM.

Regarding GAVVNDL [GAVVNDL], the IC50 in experiment [1] was found to be 70 µM.

As for AVVNDL [AVVNDL], in experiment [1], the IC50 is 51 µM. On to `CC(C)C[C@H](NC(=O)[C@H](CC(=O)O)NC(=O)[C@H](CC(N)=O)NC(=O)[C@@H](NC(=O)[C@@H](NC(=O)[C@H](C)NC(=O)CNC(=O)[C@H](C)NC(=O)[C@@H](N)Cc1ccc(O)cc1)C(C)C)C(C)C)C(=O)O` [YAGAVVNDL, Tyr Ala Gly Ala Val Val Asn Asp Leu, reference compound], for which, in experiment [1], the IC50 came to 10 µM. As to Ac-AVVNDL [AcAVVNDL], in experiment [1], the IC50 was determined as 87 µM. On to Ac-GAVVNDL [AcGAVVNDL], for which the IC50 in experiment [1] is 75 µM.
